From US20150087610A1, “Method of Modifying Fertility” (Monell Chemical Senses Center, priority 2012, published 2015)
“Also recorded” adds a separate entry of the source.

Assays:
C57B/6L wild-type sperm = test: Bitter blocker probenecid on calcium responses of wild-type mouse sperm; format: cell-based; settings: for effect of blocker on response to PTC: preincubation 5 min, 0.3 mM PTC; for response to PTC after wash-off of blocker: after wash-off of 1 mM probenecid
Procedure: (§1) Mouse spermatogenic cells were loaded with 5 μM acetoxymethylester of Fura-2 (Fora-2/AM) and 80 μg/ml pluronic F127 (Molecular Probes, Eugene, Oreg.) and transferred onto coverslips (22×60 mm, No. 0, Thomas Scientific Co.) for at least 1 hour at room temperature. The coverslip with spermatogenic cells was mounted in a recording chamber and superfused with HS or HS containing tasting compounds or the bitter blocker probenecid (Sigma-Aldrich, St. Louis, Mo.) via a valve controller (VC-8, Warner, USA).
(§2) Imaging of calcium responses was conducted as previously described (Gomez et al, 2005). Stimulation duration was 30 seconds and perfusion rate was 0.8 ml/min. Cells were excited at 340 nm and 380 nm and signals at 510 nm were captured by a cooled CCD camera. The change in fluorescence ratio (F=F340/F380) was recorded for regions-of-interest drawn on the cells.
To confirm whether the germ cells' responses to bitter tastants were mediated by the bitter taste receptors, we examined the effect of the bitter taste receptor blocker probenecid (Greene et al, 2001) and nullification of the α-gustducin gene in Gnat3 α-gustducin knockout mice described in Wong et al, 1996. Probenecid is known to inhibit the responses of human T2R16, 38 and 43 to salicin, PTC and PROP, and aloin, but not that of T2R31 to saccharin (Greene et al, 2011).

human T2R16 = molecular target: T1, human T2R16 (Homo sapiens, UniProt Q9NYV7); settings: response to salicin; cited from earlier work
T1 sequence (Q9NYV7 1-291): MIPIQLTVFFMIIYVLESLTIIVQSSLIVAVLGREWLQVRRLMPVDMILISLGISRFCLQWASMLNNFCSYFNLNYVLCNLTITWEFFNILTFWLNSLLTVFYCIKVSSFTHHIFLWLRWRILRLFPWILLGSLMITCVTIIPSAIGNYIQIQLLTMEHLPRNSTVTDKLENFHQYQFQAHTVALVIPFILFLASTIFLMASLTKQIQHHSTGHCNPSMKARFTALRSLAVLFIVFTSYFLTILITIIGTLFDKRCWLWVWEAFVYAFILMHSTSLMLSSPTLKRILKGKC

human T2R38 = molecular target: T2, human T2R38 (Homo sapiens, UniProt P59533); settings: response to PTC and PROP; cited from earlier work
T2 sequence (P59533 1-333): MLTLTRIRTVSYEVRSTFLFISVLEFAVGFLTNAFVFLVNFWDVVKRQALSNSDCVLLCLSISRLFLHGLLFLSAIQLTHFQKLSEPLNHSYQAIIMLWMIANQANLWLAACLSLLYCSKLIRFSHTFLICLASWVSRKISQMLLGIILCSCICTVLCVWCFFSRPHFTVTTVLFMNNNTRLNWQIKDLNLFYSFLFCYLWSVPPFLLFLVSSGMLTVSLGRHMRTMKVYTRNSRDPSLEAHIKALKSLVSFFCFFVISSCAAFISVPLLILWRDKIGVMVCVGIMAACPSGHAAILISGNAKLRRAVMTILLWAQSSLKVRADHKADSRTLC

human T2R43 = molecular target: T3, human T2R43 (Homo sapiens, UniProt P59537); settings: response to aloin; cited from earlier work
T3 sequence (P59537 1-309): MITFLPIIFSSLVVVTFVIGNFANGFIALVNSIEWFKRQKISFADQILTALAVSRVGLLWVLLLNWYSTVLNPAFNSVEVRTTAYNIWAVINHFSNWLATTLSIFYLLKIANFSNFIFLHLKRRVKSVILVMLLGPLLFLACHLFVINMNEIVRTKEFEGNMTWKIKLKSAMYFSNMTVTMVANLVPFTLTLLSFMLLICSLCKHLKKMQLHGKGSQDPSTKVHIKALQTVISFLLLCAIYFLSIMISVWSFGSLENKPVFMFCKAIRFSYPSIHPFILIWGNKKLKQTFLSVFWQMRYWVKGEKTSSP

mouse spermatids = test: Calcium imaging of mouse spermatids with bitter tastants; format: cell-based; settings: Mus musculus, read-out: EC50 of calcium response
Procedure: Eight adult male mice of each genotype: C57BL/6 and Gnat^−/− mice, were sacrificed, and the testis and caudal epididymis were immediately removed and transferred into HS solution containing (mM): 135 NaCl, 5 KCl, 2 CaCl2, 1 MgCl2, 30 Hepes, 10 glucose, 10 lactic acid, and 1 pyruvic acid (pH adjusted to 7.4 with NaOH) (Xia et al., 2007). For isolation of spermatids, seminiferous tubules from mouse testicle were dissected out and placed in a […] containing 3 ml of HS medium. The tissue was finely minced and gently triturated with a fire-polished pipette, and the mixture was filtered with a 100 μm nylon cell strainer (BD Falcon, Bedford, Mass.). The dissociated cells were collected in a 1.5 ml plastic tube, and washed once in HS medium by centrifugation at 300 g for 4 min and resuspended in HS medium.
as §1, §2
To analyze the dose-dependent calcium responses, the response intensity (FN) was normalized and expressed as ΔF/F0 value: ΔF/F0=(F−F0)/F0. Here F0 is the fluorescence at the beginning of stimulation, i.e., time 0, and F is the peak fluorescence ratio evoked by the stimulation. Dose-response curves and EC50 values were generated based on the normalized responses using the software Origins by nonlinear regression.

human T2r14 = molecular target: T4, human T2r14 (Homo sapiens, UniProt Q9NYV8); settings: heterologously expressed, most sensitive of five human T2rs; cited from earlier work
T4 sequence (Q9NYV8 1-317): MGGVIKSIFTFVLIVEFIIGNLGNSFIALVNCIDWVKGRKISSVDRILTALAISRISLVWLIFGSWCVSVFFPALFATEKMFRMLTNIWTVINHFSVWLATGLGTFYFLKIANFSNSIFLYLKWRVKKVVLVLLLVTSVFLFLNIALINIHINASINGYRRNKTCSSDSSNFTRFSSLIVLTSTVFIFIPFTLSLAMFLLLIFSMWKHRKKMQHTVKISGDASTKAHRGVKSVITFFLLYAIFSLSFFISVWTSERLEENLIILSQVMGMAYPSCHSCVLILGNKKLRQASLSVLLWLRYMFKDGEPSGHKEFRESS

Structure (SMILES) | effect of blocker on response to cycloheximide (C57B/6L wild-type sperm; 1 mM probenecid) | effect of blocker on response to PTC (C57B/6L wild-type sperm; 1 mM probenecid) | effect of blocker on response to PTC (C57B/6L wild-type sperm; 1 mM probenecid, listed as prebenecid) | response to PTC after wash-off of blocker (C57B/6L wild-type sperm) | response to PTC after wash-off of blocker (C57B/6L wild-type sperm; listed as prebenecid) | inhibition of receptor response (human T2R16) | inhibition of receptor response (human T2R38) | inhibition of receptor response (human T2R43) | EC50 (mouse spermatids) [µM] | EC50 (human T2r14) [µM]
CCCN(CCC)S(=O)(=O)c1ccc(C(=O)O)cc1 [probenecid] | did not block; also recorded: no inhibitory effect | nearly undetectable | nearly completely suppressed | partially recovered | restored | inhibit | inhibit | inhibit | – | –
CC(C)(O)[C@@H]1[C@H]2OC(=O)[C@@H]1[C@]1(O)C[C@H]3O[C@]34C(=O)O[C@H]2[C@]14C [picrotin] | – | – | – | – | – | – | – | – | 20 ± 10 | 18
